Data set [1] deals with Epidermal growth factor receptor (Homo sapiens, UniProt P00533).
The subject of data set [2] is HeLa. Description: Cytotoxicity against human HeLa cells at 2.5 uM. The format is functional.
For data set [3], the target named is Hepatocyte growth factor receptor (Homo sapiens, UniProt P08581). Description: Inhibition of c-Met (unknown origin).
A further data set deals with Leukemia cell. As to the kind of experiment: Antiproliferative activity against human Leukemia cells. The format is functional.
Data set [4] can be described thus: Antiproliferative activity against human CNS cells. The format is functional. The note with it: CNS cell.
For the next data set, the system named is Breast carcinoma cell. Description: Antiproliferative activity against human breast cancer cells. The format is functional.
In a further data set the test system is NCI-H460. As to the kind of experiment: Antiproliferative activity against human NCI-H460 cells. The format is functional, cell-based.
For another data set, the system named is PANC-1. As to the kind of experiment: Antiproliferative activity against human PANC-1 cells. The format is functional, cell-based.
The subject of the next data set is MIA PaCa-2. As to the kind of experiment: Antiproliferative activity against human MIA PaCa-2 cells. The format is functional, cell-based.
In another data set the test system is HT-29. Description: Antiproliferative activity against human HT-29 cells. The format is functional, cell-based.
In a further data set the test system is A-375. As to the kind of experiment: Antiproliferative activity against human A-375 cells. The format is functional, cell-based.
In data set [5] the test system is Plasmodium falciparum. As to the kind of experiment: Antimalarial activity against Plasmodium falciparum 3D7. The format is functional, organism-based.
In data set [6] the test system is Hemozoin. As to the kind of experiment: Inhibition of beta-hematin formation.
Data set [7] deals with Plasmodium berghei. As to the kind of experiment: Antimalarial activity against Plasmodium berghei ANKA infected in mouse assessed increase in survival time at 20 mg/kg/day, ip for 4 days. The format is functional. The note with it: time 4 day.
Data set [8] has as its system Plasmodium berghei. As to the kind of experiment: Antiplasmodial activity against Plasmodium berghei ANKA infected in mouse assessed as reduction in parasitaemia at 20 mg/kg/day, ip administered for 4 days. The format is functional. More on the design: scale not given: the % may be the effect or the level left. As to conditions: time 4 day.
The test system of data set [9] is Plasmodium berghei. As to the kind of experiment: Antiplasmodial activity against Plasmodium berghei infected in mouse assessed as reduction in parasitaemia at 200 mg/kg/day, ip administered for 4 days. The format is functional. More on the design: scale not given: the % may be the effect or the level left. The note with it: time 4 day.
Data set [10] deals with Plasmodium berghei. Description: Antiplasmodial activity against Plasmodium berghei infected in mouse assessed as increase in mean survival time at 100 mg/kg, po administered for 3 days (reference value: 7.6 day). The format is functional. As to conditions: time 3 day.
Data set [11] has as its system Hemozoin. Description: Inhibition of beta-hematin formation relative to control. As to conditions: concentration not given here.
Data set [12] concerns Plasmodium falciparum. As to the kind of experiment: Antimalarial activity against CQ-resistant Plasmodium falciparum W2. The format is functional, organism-based.
Data set [13] concerns Plasmodium falciparum. As to the kind of experiment: Antimalarial activity against CQ-sensitive Plasmodium falciparum D6. The format is functional, organism-based.
For data set [14], the system named is MCF7. Description: Antiproliferative activity against human MCF7 cells. The format is functional, cell-based. The note with it: Homo sapiens, MCF7.
Data set [15] deals with A2780. As to the kind of experiment: Antiproliferative activity against human A2780 cells. The format is functional, cell-based.
The test system of data set [16] is A2780. As to the kind of experiment: Antiproliferative activity against cisplatin resistant human A2780 cells. The format is functional, cell-based.
The subject of data set [17] is MCF7. As to the kind of experiment: Antiproliferative activity against mitoxantrone resistant human MCF7 cells. The format is functional, cell-based.
The nature of data set [18]: Antiproliferative activity against HUVEC cells. The format is toxicity, cell-based. As to conditions: human.
For the next data set, the system named is MV4-11. As to the kind of experiment: Antiproliferative activity against human MV4-11 cells. The format is functional, cell-based.
The target of data set [19] is Histone-lysine N-methyltransferase, H3 lysine-79 specific (Homo sapiens, UniProt Q8TEK3). Description: Inhibition of DOT1L (unknown origin).
Histone-lysine N-methyltransferase, H3 lysine-79 specific, sequence (Q8TEK3 whole entry): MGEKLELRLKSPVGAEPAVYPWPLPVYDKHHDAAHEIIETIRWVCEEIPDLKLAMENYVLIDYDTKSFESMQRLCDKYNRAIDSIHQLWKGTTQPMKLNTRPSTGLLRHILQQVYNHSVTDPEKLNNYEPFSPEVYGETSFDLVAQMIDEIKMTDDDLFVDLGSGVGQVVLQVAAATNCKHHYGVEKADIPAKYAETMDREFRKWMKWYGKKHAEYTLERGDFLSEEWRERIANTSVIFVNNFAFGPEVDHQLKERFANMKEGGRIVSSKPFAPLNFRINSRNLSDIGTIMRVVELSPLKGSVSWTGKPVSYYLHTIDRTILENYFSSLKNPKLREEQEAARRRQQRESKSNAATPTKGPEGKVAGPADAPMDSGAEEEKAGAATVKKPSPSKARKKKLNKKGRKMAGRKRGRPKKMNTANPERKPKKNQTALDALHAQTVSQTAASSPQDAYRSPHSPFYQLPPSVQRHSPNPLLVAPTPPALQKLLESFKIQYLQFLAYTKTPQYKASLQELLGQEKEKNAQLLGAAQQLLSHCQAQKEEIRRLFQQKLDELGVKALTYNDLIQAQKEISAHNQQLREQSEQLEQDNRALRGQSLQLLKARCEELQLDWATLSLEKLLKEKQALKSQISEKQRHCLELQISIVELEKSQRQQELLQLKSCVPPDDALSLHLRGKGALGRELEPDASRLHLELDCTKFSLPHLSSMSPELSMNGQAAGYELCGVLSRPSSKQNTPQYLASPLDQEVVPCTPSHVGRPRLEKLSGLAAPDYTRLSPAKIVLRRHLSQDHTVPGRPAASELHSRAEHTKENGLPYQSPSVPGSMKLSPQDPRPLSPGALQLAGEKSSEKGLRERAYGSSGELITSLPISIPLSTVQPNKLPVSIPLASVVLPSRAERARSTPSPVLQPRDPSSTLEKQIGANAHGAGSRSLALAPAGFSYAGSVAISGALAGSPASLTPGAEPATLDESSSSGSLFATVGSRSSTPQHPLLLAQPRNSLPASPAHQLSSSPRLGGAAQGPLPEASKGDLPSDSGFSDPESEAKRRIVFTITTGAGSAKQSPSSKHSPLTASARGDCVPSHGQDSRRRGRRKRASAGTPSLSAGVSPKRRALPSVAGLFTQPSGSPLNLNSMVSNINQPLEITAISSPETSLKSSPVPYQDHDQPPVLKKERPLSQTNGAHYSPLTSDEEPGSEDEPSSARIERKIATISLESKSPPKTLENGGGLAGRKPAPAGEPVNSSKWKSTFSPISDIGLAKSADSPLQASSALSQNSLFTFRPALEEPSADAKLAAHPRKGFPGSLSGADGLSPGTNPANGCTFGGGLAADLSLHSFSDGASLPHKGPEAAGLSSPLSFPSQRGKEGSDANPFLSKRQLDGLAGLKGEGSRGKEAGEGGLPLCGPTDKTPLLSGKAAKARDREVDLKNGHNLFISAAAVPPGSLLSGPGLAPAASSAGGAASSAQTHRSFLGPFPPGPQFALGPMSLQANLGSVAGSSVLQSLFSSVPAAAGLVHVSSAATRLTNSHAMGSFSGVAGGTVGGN
The next data set concerns A549. As to the kind of experiment: Cytotoxicity against human A549 cells. The format is functional, cell-based.
For the next data set, the system named is K562. As to the kind of experiment: Cytotoxicity against human K562 cells. The format is functional, cell-based.
Data set [20] deals with Phosphatidylinositol 4,5-bisphosphate 3-kinase catalytic subunit gamma isoform (Homo sapiens, UniProt P48736). Description: Inhibition of PI3K gamma (unknown origin).
Phosphatidylinositol 4,5-bisphosphate 3-kinase catalytic subunit gamma isoform, sequence (P48736 whole entry, canonical isoform): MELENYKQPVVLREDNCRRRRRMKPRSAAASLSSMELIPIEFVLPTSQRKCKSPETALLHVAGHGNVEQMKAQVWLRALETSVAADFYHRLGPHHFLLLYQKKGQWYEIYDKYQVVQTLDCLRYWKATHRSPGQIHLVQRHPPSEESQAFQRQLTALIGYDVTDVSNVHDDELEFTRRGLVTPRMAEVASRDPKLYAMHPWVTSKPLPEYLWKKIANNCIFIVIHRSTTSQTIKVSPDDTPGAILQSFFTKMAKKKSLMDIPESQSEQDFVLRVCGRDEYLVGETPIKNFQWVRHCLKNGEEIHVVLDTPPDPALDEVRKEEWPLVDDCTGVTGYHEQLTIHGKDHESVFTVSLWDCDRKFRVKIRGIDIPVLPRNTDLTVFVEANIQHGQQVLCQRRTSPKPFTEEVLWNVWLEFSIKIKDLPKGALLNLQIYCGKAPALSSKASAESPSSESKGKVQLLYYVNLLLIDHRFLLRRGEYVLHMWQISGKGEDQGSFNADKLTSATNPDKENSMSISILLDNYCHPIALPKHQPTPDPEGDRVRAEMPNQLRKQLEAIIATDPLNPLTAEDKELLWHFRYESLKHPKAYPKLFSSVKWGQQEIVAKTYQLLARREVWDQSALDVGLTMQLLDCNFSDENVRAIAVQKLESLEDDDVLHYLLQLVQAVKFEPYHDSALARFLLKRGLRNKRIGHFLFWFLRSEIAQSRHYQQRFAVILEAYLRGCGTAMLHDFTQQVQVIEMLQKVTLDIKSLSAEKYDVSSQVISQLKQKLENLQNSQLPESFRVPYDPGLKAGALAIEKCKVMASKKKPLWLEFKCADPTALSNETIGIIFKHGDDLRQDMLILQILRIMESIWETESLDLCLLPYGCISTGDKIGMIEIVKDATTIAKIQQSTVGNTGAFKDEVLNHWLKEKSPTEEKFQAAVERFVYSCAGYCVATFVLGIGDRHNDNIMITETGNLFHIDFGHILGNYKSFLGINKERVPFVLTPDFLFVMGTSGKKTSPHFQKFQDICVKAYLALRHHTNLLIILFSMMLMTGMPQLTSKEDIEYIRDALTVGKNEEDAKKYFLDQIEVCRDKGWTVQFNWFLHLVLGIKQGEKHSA
A further data set deals with PC-3. Description: Antiproliferative activity against human PC-3 cells. The format is functional, cell-based.
The next data set concerns KG-1. Description: Cytotoxicity against human KG-1 cells. The format is functional, cell-based.
The test system of another data set is Raji. As to the kind of experiment: Cytotoxicity against human Raji cells. The format is functional, cell-based.
Data set [21] concerns MDA-MB-231. As to the kind of experiment: Cytotoxicity against human MDA-MB-231 cells. The format is functional, cell-based.
Data set [22] concerns Plasmodium berghei. Description: Antimalarial activity against liver stage Plasmodium berghei. The format is functional, organism-based.
Data set [23] relates to HeLa. As to the kind of experiment: Antiproliferative activity against human HeLa cells. The format is functional, cell-based.
Data set [24] deals with MDA-MB-231. As to the kind of experiment: Antiproliferative activity against human MDA-MB-231 cells. The format is functional, cell-based.
The test system of another data set is KG-1a. As to the kind of experiment: Antiproliferative activity against human KG-1a cells. The format is functional, cell-based.
Another data set concerns Hep 3B2. Description: Cytotoxicity against human Hep3B cells assessed as relative value at 15 uM after 48 hrs by MTS method. The format is functional.
Data set [25] has as its target Alkaline phosphatase, germ cell type (Homo sapiens, UniProt P10696). Description: Inhibition of human germ cell alkaline phosphatase.
The test system of data set [26] is Plasmodium falciparum. As to the kind of experiment: Antimalarial activity against CQ-sensitive Plasmodium falciparum 3D7. The format is functional, organism-based.

Where only a bound is given, the exact number is not on record here.

Epidermal growth factor receptor, sequence (P00533 whole entry): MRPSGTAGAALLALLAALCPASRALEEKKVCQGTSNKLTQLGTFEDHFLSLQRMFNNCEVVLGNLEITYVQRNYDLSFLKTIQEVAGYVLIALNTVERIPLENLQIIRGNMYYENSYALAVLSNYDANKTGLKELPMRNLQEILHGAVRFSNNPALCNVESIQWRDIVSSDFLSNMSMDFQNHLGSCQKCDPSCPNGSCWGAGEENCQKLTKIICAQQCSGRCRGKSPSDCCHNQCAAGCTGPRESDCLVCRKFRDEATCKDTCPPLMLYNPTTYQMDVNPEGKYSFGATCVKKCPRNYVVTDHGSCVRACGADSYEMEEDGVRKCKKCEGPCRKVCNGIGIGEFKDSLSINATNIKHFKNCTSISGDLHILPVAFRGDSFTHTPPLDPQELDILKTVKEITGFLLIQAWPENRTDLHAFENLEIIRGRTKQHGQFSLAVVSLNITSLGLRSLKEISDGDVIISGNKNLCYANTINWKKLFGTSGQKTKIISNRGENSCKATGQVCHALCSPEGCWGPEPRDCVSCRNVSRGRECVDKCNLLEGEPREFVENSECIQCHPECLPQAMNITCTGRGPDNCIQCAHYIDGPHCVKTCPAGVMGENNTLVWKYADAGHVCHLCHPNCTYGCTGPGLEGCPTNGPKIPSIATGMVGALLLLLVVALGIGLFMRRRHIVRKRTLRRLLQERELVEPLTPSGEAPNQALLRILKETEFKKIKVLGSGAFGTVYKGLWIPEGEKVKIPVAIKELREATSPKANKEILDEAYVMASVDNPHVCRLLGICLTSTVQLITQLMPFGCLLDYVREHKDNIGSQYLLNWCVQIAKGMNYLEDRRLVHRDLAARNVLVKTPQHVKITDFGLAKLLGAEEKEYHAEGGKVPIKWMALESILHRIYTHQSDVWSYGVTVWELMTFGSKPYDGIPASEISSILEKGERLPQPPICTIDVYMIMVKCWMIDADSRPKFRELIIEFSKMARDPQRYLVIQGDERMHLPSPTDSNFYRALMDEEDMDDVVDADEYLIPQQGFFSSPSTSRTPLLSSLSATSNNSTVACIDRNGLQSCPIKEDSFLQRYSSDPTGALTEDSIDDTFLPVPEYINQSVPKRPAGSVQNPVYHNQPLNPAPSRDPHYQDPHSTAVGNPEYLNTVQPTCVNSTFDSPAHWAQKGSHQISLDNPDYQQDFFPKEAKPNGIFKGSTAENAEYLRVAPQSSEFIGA
Alkaline phosphatase, germ cell type, sequence (P10696 whole entry): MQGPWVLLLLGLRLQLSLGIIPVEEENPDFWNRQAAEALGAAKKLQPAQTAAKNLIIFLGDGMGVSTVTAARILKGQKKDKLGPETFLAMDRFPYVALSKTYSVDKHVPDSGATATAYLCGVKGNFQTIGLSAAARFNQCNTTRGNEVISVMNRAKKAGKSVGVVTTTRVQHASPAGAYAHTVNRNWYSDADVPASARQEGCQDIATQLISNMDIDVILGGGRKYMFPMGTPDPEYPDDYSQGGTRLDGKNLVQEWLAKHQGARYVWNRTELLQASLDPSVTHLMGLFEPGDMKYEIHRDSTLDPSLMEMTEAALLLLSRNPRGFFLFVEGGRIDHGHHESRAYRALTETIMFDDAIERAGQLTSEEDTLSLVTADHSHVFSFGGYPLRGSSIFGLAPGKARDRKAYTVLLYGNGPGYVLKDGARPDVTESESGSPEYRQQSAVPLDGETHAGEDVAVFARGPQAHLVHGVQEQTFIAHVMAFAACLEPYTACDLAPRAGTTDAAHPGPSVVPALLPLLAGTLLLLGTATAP

Turning to `COc1ccc2nc(Cl)c(C3CC(c4ccc(C)cc4)=NN3c3nc(-c4ccc(F)cc4)cs3)cc2c1` (centres undefined), in data set [1], half-maximal inhibition (IC50) was put at 31.8 nM.
With `CCOc1ccc(Nc2cc(C)nc3ccc(Cl)cc23)cc1`, in the data set on HeLa [2], the Activity came to 8%.
`COc1cc2nccc(Oc3ccc(NC(=O)C4(C(=O)Nc5ccc(F)cc5)CC4)cc3)c2cc1Oc1ccc(N)cn1` gave a 50% inhibitory concentration (IC50) in data set [3] of 19 nM. For the same compound, the GI50 (with Leukemia cell; in data set [4]; in the data set with Breast carcinoma cell) was 290 nM each time.
Turning to `COc1nc2ccccc2cc1/C=C1/C=C(c2ccccc2)NC1=O`, the IC50 with NCI-H460, with PANC-1, in the data set on MIA PaCa-2, in the data set on HT-29 and with A-375 was 1900 nM each time.
In the data set with Plasmodium falciparum [5], `CCN(CC)CCCC(C)Nc1ccnc2cc(Cl)ccc12` (centres undefined) [CHLOROQUINE] had an EC50 of 165 nM. Further, in the data set with Hemozoin [6], the IC50 turned out to be 890000 nM. In addition, the Time worked out at 24.99 days with Plasmodium berghei [7] and 26.2 days in the data set on Plasmodium berghei [10]. Also, the Activity worked out at 0.32% in the data set on Plasmodium berghei [8] and 100% in the data set on Plasmodium berghei [9]. Besides, the inhibition in the data set on Hemozoin [11] was found to be 52.1%.
In the case of `COc1ccc2nc(Cl)c(/C=C/C(=O)c3ccc(OC)c(OC)c3OC)cc2c1`, in the data set on Hemozoin [11], the inhibition came to 61.3%.
As to `Cc1c(Cl)ccc2cc(/C=C/C(=O)c3ccc(Br)cc3)c(Cl)nc12`, the IC50 with Plasmodium falciparum [12] was 38 nM; in the data set on Plasmodium falciparum [13], less than 50 nM. The Time in the data set with Plasmodium berghei [10] was 11.8 days.
`COc1ccc(C(=O)/C=C/c2cc3ccccc3nc2Cl)cc1OC` had an inhibition in the data set with Hemozoin [11] of 61.3%.
In the case of `COc1ccc(/C=C/c2cc(Nc3cc(OC)c(OC)c(OC)c3)c3c(OC)c(OC)c(OC)cc3n2)cc1OC`, the IC50 with MCF7 [14] came to 500 nM; in the data set on A2780 [15] it was 500 nM; in the data set on A2780 [16], 500 nM; in the data set with MCF7 [17], 500 nM; in [18] it was 7820 nM.
Take `Cc1cc(Nc2ccc3nc(C)cc(N)c3c2)nc(NCCCCCCNC(=O)Nc2cc(C(F)(F)F)cc(C(F)(F)F)c2)n1`: the IC50 in the data set with MV4-11 was 1290 nM; in data set [19], 3550 nM.
Turning to `Cc1ccc(-c2cc(C(=O)N/N=C(\C=C\c3ccc(Cl)cc3)c3ccc(N)cc3)c3ccccc3n2)cc1`, the IC50 in the data set on A549 turned out to be 1910 nM; in the data set with K562, 1910 nM; in [20], 197 nM.
With `Cc1cc(Nc2ccc(NC(=O)c3ccc(Nc4ccnc5ccccc45)cc3)cc2)nc(N)n1`, the IC50 in the data set on PC-3, in the data set with KG-1, in the data set with Raji and with MDA-MB-231 [21] was 1700 nM in each case.
In the case of `COc1ccc(Nc2cc(/C=C/c3ccc([N+](=O)[O-])cc3)nc3cc(OC)c(OC)c(OC)c23)cc1OC`, the IC50 in the data set with MCF7 [14] stood at 1130 nM; with A2780 [15], 1130 nM; with A2780 [16] it was 1130 nM; in the data set on MCF7 [17] it was 1130 nM; in data set [18] it was 7820 nM.
Compound `COc1cc(NC(C)CCCN)c2ncccc2c1` (centres undefined) [PRIMAQUINE] yielded an IC50 in the data set with Plasmodium berghei [22] of 1100 nM.
The compound `COc1cc2nc(N3CCCN(C)CC3)nc(NC3CCN(Cc4ccccc4)CC3)c2cc1OC` gave an Activity in the data set on HeLa [2] of 63%.
Take `COc1ccc2nc(-c3ccc(Br)cc3)cc(-c3nnc(Nc4ccc([N+](=O)[O-])cc4)o3)c2c1`: the IC50 in the data set on HeLa [23] was found to be 50 nM; in the data set on MDA-MB-231 [24], 540 nM; with KG-1a, 1210 nM.
On the same counts, the results for `Cc1ccc(Nc2nnc(-c3cc(-c4ccc(Br)cc4)nc4ccccc34)o2)cc1` are 50 nM, 540 nM and 1210 nM.
Turning to `Cc1ccc2cccc(OS(=O)(=O)c3ccc(CBr)cc3)c2n1`, the “fold change (FC)” value in the data set on Hep 3B2 is on record as 0.25.
For the compound `COc1ccc2nc(Cl)c(/C=C/C(=O)c3ccc(C)cc3)cc2c1`, in data set [1], the IC50 came to 37.1 nM.
`Cc1cc2c(C(=O)Nc3nc4ccccc4s3)cc(O)nc2cc1Cl`: the IC50 with PC-3 was 18 nM; in [25], less than 75 nM.
On to `COc1cc(C)c2c(Oc3cccc(C(F)(F)F)c3)c(OC)cc(NC(C)CCON)c2n1` (centres undefined), for which the IC50 was determined as 380 nM with Plasmodium falciparum [26] and 5400 nM in the data set with Plasmodium berghei [22].
Regarding `COc1ccc(/C=C/C(=O)c2cccc(Nc3ccnc4cc(Cl)ccc34)c2)cc1OC`, the Time in the data set on Plasmodium berghei [7] was 22.44 days. The Activity in the data set with Plasmodium berghei [8] came out at 1.4%.
In the case of `COc1ccc(/C=C\c2cc(OC)c(OC)c(OC)c2)cc1O` [COMBRETASTATIN A4], the IC50 in the data set on NCI-H460 turned out to be 180 nM; in the data set on PANC-1, 180 nM; in the data set with MIA PaCa-2, 180 nM; in the data set with HT-29, 180 nM; in the data set on A-375 it was 180 nM; in data set [18] it was 1560 nM.

The values are drawn from ChEMBL document CHEMBL5230155, “Recent contributions of quinolines to antimalarial and anticancer drug discovery research” (Eur J Med Chem, 2021).
